Reference: patent US20160158200A1, “Combinations of Hepatitis C Virus Inhibitors” (priority 2013, published 2016)

System: HCV genotype-1a variant with glutamine 30 changed to glutamate in the NS5A protein
Type: cell-based
Conditions: test compound titrated with BMS-790052 fixed at 200 nM; genotype 1a Q30E replicon
How it was run: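 Synergy was assessed by combining several fixed amounts of an NS5A-targeting compound with a titration of the second compound of interest.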

Structure (SMILES) | Fold-Synergistic 1a (Q30E) [fold]
COc1ccccc1C(=O)N[C@H](c1ncc(-c2ccc(-c3ccc(-c4cnc([C@@H](NC(=O)c5ccccc5OC)C(C)C)[nH]4)cc3)cc2)[nH]1)C(C)C [Compound S-68] | >100
CC(C)[C@H](NC(=O)c1ccccc1C(F)(F)F)c1ncc(-c2ccc(-c3ccc(-c4cnc([C@@H](NC(=O)c5ccccc5C(F)(F)F)C(C)C)[nH]4)cc3)cc2)[nH]1 [Compound S-69] | >100
Cc1ccccc1C(=O)N[C@H](c1ncc(-c2ccc(-c3ccc(-c4cnc([C@@H](NC(=O)c5ccccc5C)C(C)C)[nH]4)cc3)cc2)[nH]1)C(C)C [Compound S-70] | >100
Cc1ccc(C)c(C(=O)N[C@H](c2ncc(-c3ccc(-c4ccc(-c5cnc([C@@H](NC(=O)c6cc(C)ccc6C)C(C)C)[nH]5)cc4)cc3)[nH]2)C(C)C)c1 [Compound S-71] | >100
CC(C)[C@H](NC(=O)c1cccc(C#N)c1)c1ncc(-c2ccc(-c3ccc(-c4cnc([C@@H](NC(=O)c5cccc(C#N)c5)C(C)C)[nH]4)cc3)cc2)[nH]1 [Compound S-72] | >100
CC(C)[C@H](NC(=O)c1cccc(F)c1)c1ncc(-c2ccc(-c3ccc(-c4cnc([C@@H](NC(=O)c5cccc(F)c5)C(C)C)[nH]4)cc3)cc2)[nH]1 [Compound S-73] | >100
CC(C)[C@H](NC(=O)c1cccc(Cl)c1)c1ncc(-c2ccc(-c3ccc(-c4cnc([C@@H](NC(=O)c5cccc(Cl)c5)C(C)C)[nH]4)cc3)cc2)[nH]1 [Compound S-74] | >100
CC(C)[C@H](NC(=O)c1ccc(Cl)c(Cl)c1)c1ncc(-c2ccc(-c3ccc(-c4cnc([C@@H](NC(=O)c5ccc(Cl)c(Cl)c5)C(C)C)[nH]4)cc3)cc2)[nH]1 [Compound S-75] | >100
CC(C)[C@H](NC(=O)c1cc(Cl)cc(Cl)c1)c1ncc(-c2ccc(-c3ccc(-c4cnc([C@@H](NC(=O)c5cc(Cl)cc(Cl)c5)C(C)C)[nH]4)cc3)cc2)[nH]1 [Compound S-76] | >100
COc1cccc(C(=O)N[C@H](c2ncc(-c3ccc(-c4ccc(-c5cnc([C@@H](NC(=O)c6cccc(OC)c6)C(C)C)[nH]5)cc4)cc3)[nH]2)C(C)C)c1 [Compound S-77] | >100
COc1ccc(C(=O)N[C@H](c2ncc(-c3ccc(-c4ccc(-c5cnc([C@@H](NC(=O)c6ccc(OC)c(OC)c6)C(C)C)[nH]5)cc4)cc3)[nH]2)C(C)C)cc1OC [Compound S-78] | >100
CC(C)[C@H](NC(=O)c1cccc(C(F)(F)F)c1)c1ncc(-c2ccc(-c3ccc(-c4cnc([C@@H](NC(=O)c5cccc(C(F)(F)F)c5)C(C)C)[nH]4)cc3)cc2)[nH]1 [Compound S-79] | >100
Cc1cccc(C(=O)N[C@H](c2ncc(-c3ccc(-c4ccc(-c5cnc([C@@H](NC(=O)c6cccc(C)c6)C(C)C)[nH]5)cc4)cc3)[nH]2)C(C)C)c1 [Compound S-80] | >100
CC(C)[C@H](NC(=O)c1ccc(C#N)cc1)c1ncc(-c2ccc(-c3ccc(-c4cnc([C@@H](NC(=O)c5ccc(C#N)cc5)C(C)C)[nH]4)cc3)cc2)[nH]1 [Compound S-81] | >100
CC(C)[C@H](NC(=O)c1ccc(F)cc1)c1ncc(-c2ccc(-c3ccc(-c4cnc([C@@H](NC(=O)c5ccc(F)cc5)C(C)C)[nH]4)cc3)cc2)[nH]1 [Compound S-82] | >100
CC(C)[C@H](NC(=O)c1ccc(Cl)cc1)c1ncc(-c2ccc(-c3ccc(-c4cnc([C@@H](NC(=O)c5ccc(Cl)cc5)C(C)C)[nH]4)cc3)cc2)[nH]1 [Compound S-83] | >100
CC(C)[C@H](NC(=O)c1ccc(C(F)(F)F)cc1)c1ncc(-c2ccc(-c3ccc(-c4cnc([C@@H](NC(=O)c5ccc(C(F)(F)F)cc5)C(C)C)[nH]4)cc3)cc2)[nH]1 [Compound S-84] | >100
